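These data come from cells grown in 96-well plates and exposed to compound for 48 hours at five concentrations. GI50: concentration for 50% inhibition of growth. TGI: concentration producing complete growth inhibition.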
Key:
Experiment in all cases: NCI-60 cell line screen, 48 h
[1] = system: SF-539 CNS
[2] = system: COLO 205 colon
[3] = system: MCF7 breast
[4] = system: DU-145 prostate
[5] = system: MDA-MB-435
[6] = system: UACC-62 melanoma
[7] = system: KM12 colon
[8] = system: CAKI-1 renal
[9] = system: NCI-H522 lung
[10] = system: SK-OV-3 ovarian
[11] = system: SK-MEL-5 melanoma
[12] = system: NCI/ADR-RES ovarian
[13] = system: UACC-257 melanoma
[14] = system: SK-MEL-28 melanoma
[15] = system: CCRF-CEM leukemia
[16] = system: U251 CNS
[17] = system: TK-10 renal
[18] = system: PC-3 prostate
[19] = system: SR leukemia
[20] = system: SW-620 colon
[21] = system: UO-31 renal
[22] = system: K-562 leukemia
[23] = system: NCI-H23 lung
[24] = system: OVCAR-5 ovarian
[25] = system: HT29 colon
[26] = system: EKVX NSCLC
[27] = system: RXF 393 renal
[28] = system: OVCAR-3 ovarian
[29] = system: OVCAR-8 ovarian
[30] = system: HCC-2998 colon
[31] = system: BT-549 breast
[32] = system: T-47D breast
[33] = system: ACHN renal
[34] = system: SK-MEL-2 melanoma
[35] = system: 786-0 renal
[36] = system: M14 melanoma
[37] = system: HOP-92 NSCLC
[38] = system: SNB-75 CNS
[39] = system: NCI-H460 lung
[40] = system: MDA-MB-231 breast
[41] = system: HOP-62 NSCLC
[42] = system: RPMI-8226 leukemia
[43] = system: SNB-19 CNS
[44] = system: HCT-116 colon
[45] = system: A498 renal
[46] = system: MALME-3M melanoma
[47] = system: MOLT-4 leukemia
[48] = system: SF-268 CNS
[49] = system: HCT-15 colon
[50] = system: A549 NSCLC
[51] = system: HS 578T breast
[52] = system: SN12C renal

Compound O=C(/C=C/c1cccs1)c1ccc(Cl)cc1Cl has a GI50 [1] of 19.8 µM, a TGI [1] of 38.6 µM and a GI50 [2] of 27.1 µM. It also gave a TGI [2] of 88.9 µM, a GI50 [3] of 18.4 µM and a TGI [3] of 51.6 µM. For the same compound, the GI50 [4] was 20 µM, the TGI [4] was 43.7 µM and the GI50 [5] was 17.7 µM. The TGI [5] was 35.2 µM, the GI50 [6] was 13.4 µM and the TGI [6] was 26.4 µM. It also gave a GI50 [7] of 19.1 µM, a TGI [7] of 40 µM and a GI50 [8] of 20.9 µM. It also gave a TGI [8] of 43.1 µM, a GI50 [9] of 17.4 µM and a TGI [9] of 36.5 µM. The GI50 [10] was 25.5 µM, the TGI [10] was 55.3 µM and the GI50 [11] was 15 µM. It also gave a TGI [11] of 28.8 µM, a GI50 [12] of 31.4 µM and a TGI [12] of over 100 µM. It also gave a GI50 [13] of 16.6 µM, a TGI [13] of 31.9 µM and a GI50 [14] of 22.4 µM. It also gave a TGI [14] of 52.7 µM, a GI50 [15] of 32.1 µM and a TGI [15] of 97.1 µM. For the same compound, the GI50 [16] was 14.6 µM, the TGI [16] was 28.1 µM and the GI50 [17] was 25.3 µM. It also gave a TGI [17] of 61.1 µM, a GI50 [18] of 33.2 µM and a TGI [18] of over 100 µM. The GI50 [19] was 15 µM, the TGI [19] was 77.3 µM and the GI50 [20] was 18.8 µM. It also gave a TGI [20] of 37.1 µM, a GI50 [21] of 18.5 µM and a TGI [21] of 34.2 µM. The GI50 [22] was 19.1 µM, the TGI [22] was 56.4 µM and the GI50 [23] was 17.1 µM. It also gave a TGI [23] of 33.6 µM, a GI50 [24] of 20.1 µM and a TGI [24] of 39 µM. It also gave a GI50 [25] of 28.1 µM, a TGI [25] of over 100 µM and a GI50 [26] of 18.6 µM. It also gave a TGI [26] of 36.7 µM, a GI50 [27] of 19.4 µM and a TGI [27] of 38.4 µM. For the same compound, the GI50 [28] was 19 µM, the TGI [28] was 36.4 µM and the GI50 [29] was 19.4 µM. It also gave a TGI [29] of 48.3 µM, a GI50 [30] of 19.2 µM and a TGI [30] of 34.8 µM. For the same compound, the GI50 [31] was 19.3 µM, the TGI [31] was 39.9 µM and the GI50 [32] was 28.6 µM. For the same compound, the TGI [32] was over 100 µM, the GI50 [33] was 17.4 µM and the TGI [33] was 31.3 µM. The GI50 [34] was 17.5 µM, the TGI [34] was 35 µM and the GI50 [35] was 16.6 µM. For the same compound, the TGI [35] was 33.9 µM, the GI50 [36] was 19.8 µM and the TGI [36] was 40.5 µM. The GI50 [37] was 23.8 µM, the TGI [37] was 61.4 µM and the GI50 [38] was 18.1 µM. The TGI [38] was 35.9 µM, the GI50 [39] was 18 µM and the TGI [39] was 37.1 µM. The GI50 [40] was 14.3 µM, the TGI [40] was 28.1 µM and the GI50 [41] was 19.4 µM. The TGI [41] was 37.7 µM, the GI50 [42] was 27.7 µM and the TGI [42] was over 100 µM. The GI50 [43] was 24 µM, the TGI [43] was 64.2 µM and the GI50 [44] was 14 µM. For the same compound, the TGI [44] was 30.8 µM, the GI50 [45] was 17.9 µM and the TGI [45] was 32.7 µM. It also gave a GI50 [46] of 1.04 µM, a TGI [46] of 19.8 µM and a GI50 [47] of 18.8 µM. It also gave a TGI [47] of 51.9 µM, a GI50 [48] of 19.1 µM and a TGI [48] of 39 µM. The GI50 [49] was 14.7 µM, the TGI [49] was 32.4 µM and the GI50 [50] was 17.3 µM. For the same compound, the TGI [50] was 36.4 µM, the GI50 [51] was 24.5 µM and the TGI [51] was 55.9 µM. The GI50 [52] was 16.4 µM and the TGI [52] was 31.2 µM.

— PubChem BioAssay (NCI)
